For experiment [1], the target named is T1, CYP17 (human testicular microsome) (Homo sapiens, UniProt P05093).
T1 construct: using microsomal fraction from human testis (Celsis Cat #S00110) as the enzyme source; tissue Celsis S00110; host or cells: human testis microsomal fraction
T1 sequence (P05093 1-508): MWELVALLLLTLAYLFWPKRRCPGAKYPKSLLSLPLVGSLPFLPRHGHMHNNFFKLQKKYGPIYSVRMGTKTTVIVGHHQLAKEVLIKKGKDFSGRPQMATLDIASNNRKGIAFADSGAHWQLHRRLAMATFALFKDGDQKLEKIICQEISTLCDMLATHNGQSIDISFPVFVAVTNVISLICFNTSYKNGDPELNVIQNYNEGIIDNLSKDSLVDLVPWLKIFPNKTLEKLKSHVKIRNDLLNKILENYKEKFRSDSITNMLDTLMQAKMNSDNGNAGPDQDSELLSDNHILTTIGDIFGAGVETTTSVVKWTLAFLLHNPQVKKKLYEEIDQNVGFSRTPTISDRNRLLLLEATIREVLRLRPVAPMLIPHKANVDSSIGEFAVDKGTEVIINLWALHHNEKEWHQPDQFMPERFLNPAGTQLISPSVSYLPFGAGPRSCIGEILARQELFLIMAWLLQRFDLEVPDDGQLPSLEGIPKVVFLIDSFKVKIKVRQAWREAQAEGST
Description: CYP17 enzymatic assay (IC50) (Biological Example 4). The settings on record: human testicular microsome. It is filed as biochemical.

Experiment [2] has as its target T1, CYP17 (human testicular microsome). Description: CYP17 enzymatic assay (% inhibition at 1 nM) (Biological Example 12). It is filed as biochemical.
Where [3] appears, read: read-out: CYP17 enzymatic assay IC50 (Biological Example No. 4).
Where [4] appears, read: read-out: Biological Example No. 4: CYP17 enzymatic assay IC50.
Setting [5] is: compound at 1 nM, read-out: CYP17 enzymatic assay % inhibition at 1 nM (Biological Example No. 12).
[6] abbreviates: compound at 1 nM, read-out: Biological Example No. 12: CYP17 enzymatic assay % inhibition at 1 nM.

Molecules are shown by their SMILES. Where two headings read alike, the source gives them in different places.

In the case of `CC(=O)O[C@H]1CC[C@@]2(C)C(=CC[C@H]3C4=CC=C(n5ccnc5)[C@@]4(C)CC[C@@H]32)C1` [Compound 73, (3S,10R,13S)-17-(1H-imidazol-1-yl)-10,13-dimethyl-2,3,4,7,8,9,10,11,12,13-decahydro-1H-cyclopenta[a]phenanthren-3-yl acetate], the IC50 in experiment [1] (DHEA by ELISA, read-out: Biological Example No. 4: CYP17 enzymatic assay IC50) was less than 11 nM.

Turning to `C[C@]12CCC(F)(F)CC1CCC1C2CC[C@]2(C)C(n3ccnc3)=CCC12` (stereo partly drawn) [Compound 406, 1-((10S,13S)-3,3-difluoro-10,13-dimethyl-2,3,4,5,6,7,8,9,10,11,12,13,14,15-tetradecahydro-1H-cyclopenta[a]phenanthren-17-yl)-1H-imidazole], the concentration for half-maximal inhibition (IC50) in experiment [1] (setting [3]) was less than 11 nM. Consider `C[C@]12CCC3C(CCC4CC(F)(F)CC[C@@]43C)C1=CC=C2c1cccnc1` (stereo partly drawn) [Compound 403, 3-((10S,13S)-3,3-difluoro-10,13-dimethyl-2,3,4,5,6,7,8,9,10,11,12,13-dodecahydro-1H-cyclopenta[a]phenanthren-17-yl)pyridine], for which the 50% inhibitory concentration (IC50) in experiment [1] (setting [4]) was less than 11 nM. Consider `Cc1cncc(C2=CC=C3[C@@H]4CCC5CC(=O)NCC[C@]5(C)[C@H]4CC[C@]23C)c1` (stereo partly drawn) [Compound 460, (5aS,5bS,7aS,10bR)-5a,7a-dimethyl-8-(5-methylpyridin-3-yl)-3,4,5,5a,5b,6,7,7a,10b,11,12,12a-dodecahydrocyclopenta[5,6]naphtho[1,2-d]azepin-2(1H)-one], for which, in experiment [1] (setting [3]), the 50% inhibitory concentration (IC50) was less than 11 nM. Also, the inhibition at 0.001 µM in experiment [2] (setting [5]) was more than 50%. With `Cc1cncc(C2=CC[C@H]3[C@@H]4CC=C5C[C@H](NC(=O)C6CC6)CC[C@]5(C)[C@H]4CC[C@]23C)c1` [Compound 227, N-((3R,10R,13S)-10,13-dimethyl-17-(5-methylpyridin-3-yl)-2,3,4,7,8,9,10,11,12,13,14,15-dodecahydro-1H-cyclopenta[a]phenanthren-3-yl)cyclopropanecarboxamide], in experiment [1] (setting [3]), the 50% inhibitory concentration (IC50) was less than 11 nM. Moreover, in experiment [2] (setting [5]), the inhibition at 0.001 µM was more than 50%. Regarding `CC1CC2C3CC=C(c4cccnc4)[C@@]3(C)CCC2[C@@]2(C)CC[C@H](O)CC12O` (stereo partly drawn) [Compound 410, (3S,10R,13S)-6,10,13-trimethyl-17-(pyridin-3-yl)-2,3,4,5,6,7,8,9,10,11,12,13,14,15-tetradecahydro-1H-cyclopenta[a]phenanthrene-3,5-diol], the IC50 in experiment [1] (setting [4]) is less than 11 nM. In addition, the inhibition at 0.001 µM in experiment [2] (setting [6]) is more than 50%. Turning to `C[C@]12CCC(F)(F)CC1CCC1C2CC[C@]2(C)C(c3cncc(F)c3)=CCC12` (stereo partly drawn) [Compound 405, 3-((10S,13S)-3,3-difluoro-10,13-dimethyl-2,3,4,5,6,7,8,9,10,11,12,13,14,15-tetradecahydro-1H-cyclopenta[a]phenanthren-17-yl)-5-fluoropyridine], the half-maximal inhibitory concentration (IC50) in experiment [1] (setting [3]) is more than 25 nM. For `C[C@]12CCC(F)(F)CC1CCC1C2CC[C@]2(C)C(c3cccnc3)=CCC12` (stereo partly drawn) [Compound 404, 3-((10S,13S)-3,3-difluoro-10,13-dimethyl-2,3,4,5,6,7,8,9,10,11,12,13,14,15-tetradecahydro-1H-cyclopenta[a]phenanthren-17-yl)pyridine], in experiment [1] (setting [4]), the IC50 is less than 11 nM. With `CC1C[C@@H]2[C@H](CC[C@]3(C)C(c4cccnc4)=CC[C@@H]23)[C@@]2(C)CCC(C)(O)C=C12` (stereo partly drawn) [Compound 423, (10R,13S)-3,6,10,13-tetramethyl-17-(pyridin-3-yl)-2,3,6,7,8,9,10,11,12,13,14,15-dodecahydro-1H-cyclopenta[a]phenanthren-3-ol], the inhibition at 0.001 µM in experiment [2] (setting [6]) lay within 10 to 50%.

As for `COC1CC[C@@]2(C)C(=CCC3C2CC[C@]2(C)C(c4cncc(C)c4)=CCC32)C1` (stereo partly drawn) [Compound 454, 3-((10R,13S)-3-methoxy-10,13-dimethyl-2,3,4,7,8,9,10,11,12,13,14,15-dodecahydro-1H-cyclopenta[a]phenanthren-17-yl)-5-methylpyridine], the inhibition at 0.001 µM in experiment [2] (setting [5]) was less than 10%. Consider `CC1CC2C(CC[C@]3(C)C(c4cccnc4)=CCC23)[C@@]2(C)CC[C@@](C)(O)CC12` (stereo partly drawn) [Compound 424, (3R,10S,13S)-3,6,10,13-tetramethyl-17-(pyridin-3-yl)-2,3,4,5,6,7,8,9,10,11,12,13,14,15-tetradecahydro-1H-cyclopenta[a]phenanthren-3-ol], for which the inhibition at 0.001 µM in experiment [2] (setting [6]) was 10 to 50%. In the case of `CN1C(=O)CC[C@@]2(C)C1=CC[C@@H]1[C@@H]2CC[C@]2(C)C(c3cnccc3F)=CC[C@@H]12` [Compound 430, (4aR,6aS)-7-(4-fluoropyridin-3-yl)-1,4a,6a-trimethyl-4,4a,4b,5,6,6a,9,9a,9b,10-decahydro-1H-indeno[5,4-f]quinolin-2(3H)-one], the inhibition at 0.001 µM in experiment [2] (setting [6]) lay within 10 to 50%. For `Cc1ccncc1C1=CC=C2C3CCC4CC(=O)CC[C@]4(C)C3CC[C@]12C` (stereo partly drawn) [Compound 486, (10S,13S)-10,13-dimethyl-17-(4-methylpyridin-3-yl)-4,5,6,7,8,9,10,11,12,13-decahydro-1H-cyclopenta[a]phenanthren-3(2H)-one], the inhibition at 0.001 µM in experiment [2] (test compound at 1 nM, read-out: CYP17 enzymatic assay percent inhibition at 1 nM (Biological Example No. 12)) fell in the range of 10 to 50%.

Turning to `Cc1cnc(F)c(C2=CCC3C4CC=C5C[C@@H](O)CC[C@]5(C)C4CC[C@]23C)c1` (stereo partly drawn) [Compound 277, (3S,10R,13S)-17-(2-fluoro-5-methylpyridin-3-yl)-10,13-dimethyl-2,3,4,7,8,9,10,11,12,13,14,15-dodecahydro-1H-cyclopenta[a]phenanthren-3-ol], the inhibition at 0.001 µM in experiment [2] (setting [6]) is 10 to 50%. As to `CCc1ccncc1C1=CC[C@H]2[C@@H]3CC[C@H]4CC(=O)NCC[C@]4(C)[C@H]3CC[C@]12C` [Compound 469, (5aS,5bS,7aS,10aS,10bR,12aS)-8-(4-ethylpyridin-3-yl)-5a,7a-dimethyl-3,4,5,5a,5b,6,7,7a,10,10a,10b,11,12,12a-tetradecahydrocyclopenta[5,6]naphtho[1,2-d]azepin-2(1H)-one], the inhibition at 0.001 µM in experiment [2] (setting [5]) lay within 10 to 50%.

For the compound `CNC1C[C@H]2[C@@H]3CC=C(n4ccnc4)[C@@]3(C)CC[C@@H]2[C@@]2(C)CCC3CC312` (mixture of isomers) [Compound 248, (3aR,5aS)-6-(1H-imidazol-1-yl)-N,3a,5a-trimethyl-1,1a,2,3,3a,3b,4,5,5a,8,8a,8b,9,10-tetradecahydrocyclopenta[a]cyclopropa[2,3]cyclopenta[1,2-f]naphthalen-10-amine], the inhibition at 0.001 µM in experiment [2] (setting [5]) is less than 10%.

Regarding `C[C@]12CCC3C(CC4OC45C[C@@H](O)CC[C@]35C)C1=CC=C2c1cccnc1` (stereo partly drawn) [Compound 439, (3S,9aS,11bR)-9a,11b-dimethyl-9-(pyridin-3-yl)-1,2,3,4,5a,6,6a,9a,10,11,11a,11b-dodecahydrocyclopenta[1,2]phenanthro[8a,9-b]oxiren-3-ol], the inhibition at 0.001 µM in experiment [2] (setting [5]) is more than 50%. For `CCNC(=O)NC1CC[C@@]2(C)C(=CC[C@@H]3[C@@H]2CC[C@]2(C)C(c4cncc(OC)c4)=CC[C@@H]32)C1` (stereo partly drawn) [Compound 234, 1-ethyl-3-((10R,13S)-17-(5-methoxypyridin-3-yl)-10,13-dimethyl-2,3,4,7,8,9,10,11,12,13,14,15-dodecahydro-1H-cyclopenta[a]phenanthren-3-yl)urea], in experiment [2] (setting [5]), the inhibition at 0.001 µM was 10 to 50%. `C[C@]12CC[C@@H](N)CC1CC[C@@H]1[C@@H]2CC[C@]2(C)C(c3cccnc3)=CC[C@@H]12` (stereo partly drawn) [Compound 214, (3R,10S,13S)-10,13-dimethyl-17-(pyridin-3-yl)-2,3,4,5,6,7,8,9,10,11,12,13,14,15-tetradecahydro-1H-cyclopenta[a]phenanthren-3-amine]: the inhibition at 0.001 µM in experiment [2] (setting [5]) lay in the range of 10 to 50%. For `C[C@]12CCC3C(CCC4CC(F)(F)CC[C@@]43C)C1=CC=C2c1cncc(F)c1` (stereo partly drawn) [Compound 402, 3-((10S,13S)-3,3-difluoro-10,13-dimethyl-2,3,4,5,6,7,8,9,10,11,12,13-dodecahydro-1H-cyclopenta[a]phenanthren-17-yl)-5-fluoropyridine], the IC50 in experiment [1] (setting [4]) was more than 25 nM. As to `CC(C)(C)C(=O)O[C@H]1CC[C@@]2(C)C(=CCC3C4=CC=C(c5cccnc5)[C@@]4(C)CCC32)C1` (stereo partly drawn) [Compound 192, (3S,10R,13S)-10,13-dimethyl-17-(pyridin-3-yl)-2,3,4,7,8,9,10,11,12,13-decahydro-1H-cyclopenta[a]phenanthren-3-yl pivalate], the inhibition at 0.001 µM in experiment [2] (setting [5]) fell in the range of 10 to 50%. For `CN1CCC(C(=O)O[C@H]2CC[C@@]3(C)C(=CC[C@H]4C5=CC=C(c6cccnc6)[C@@]5(C)CC[C@@H]43)C2)CC1` [Compound 207, (3S,10R,13S)-10,13-dimethyl-17-(pyridin-3-yl)-2,3,4,7,8,9,10,11,12,13-decahydro-1H-cyclopenta[a]phenanthren-3-yl 1-methylpiperidine-4-carboxylate], the inhibition at 0.001 µM in experiment [2] (setting [6]) lay in the range of 10 to 50%. Take `CCOc1cncc(C2=CC[C@H]3[C@@H]4CC[C@H]5C[C@@H](OC)CC[C@]5(C)[C@H]4CC[C@]23C)c1` [Compound 457, 3-ethoxy-5-((3S,5S,8R,9S,10S,13S,14S)-3-methoxy-10,13-dimethyl-2,3,4,5,6,7,8,9,10,11,12,13,14,15-tetradecahydro-1H-cyclopenta[a]phenanthren-17-yl)pyridine]: the inhibition at 0.001 µM in experiment [2] (setting [5]) lay within 10 to 50%.

As a reminder, the IC50 is the concentration needed to halve the response being measured. The term inhibition denotes the share of the control response that was lost under treatment.

Values taken from patent US20130252930A1 (BIOMARIN PHARMACEUTICAL INC., priority 2010, published 2013).
